“Also recorded” adds a separate entry of the source.
What was measured:
[1] = system: primary patient FLT3 D835 AML circulating blasts; test: Colony-forming assay, primary patient FLT3-D835 AML blasts; type: cell-based, human
Text: (§1) Primary AML blood samples and/or marrow aspirates were obtained on an IRB-approved protocol at the University of California, San Francisco. Informed consent was obtained in accordance with the Declaration of Helsinki. Mononuclear cells were purified by density centrifugation (Ficoll–Paque Plus, GE Healthsciences) before cryopreservation in 10% (vol/vol) DMSO or FCS (primary ITD and D835-mutant assays, Figure 3A–C) or immediate use in assays (Normal BM and SPB, Figure 3D–F). Normal BM and stimulated peripheral blood (SPB) samples were collected from donors at the UCSF oncology/hematology division. Cells were then suspended in MethoCult methylcellulose (Stem Cell Technologies, product no. H4435 Enriched, Canada) in 15-ml Falcon tubes, vigorously vortexed, bubbles settled over 10 min. Triplicates then plated via blunt-nosed syringe (1.1 ml each) into 3-cm dishes, avoiding bubble generation, and each dish placed in a larger 10-cm dish with water trough in an incubator (37°C, 5% CO2) for 13–14 days. Colonies were counted individually using traditional microscopy. CFU and BFU types reported separately (CFU-GEMM colonies counted as one of each).

[2] = system: normal bone marrow (BM) and stimulated peripheral blood (SPB) hematopoietic progenitors; test: Colony-forming assay, normal BM and stimulated peripheral blood; type: cell-based, human
Text: as §1, with “each). Results shown for FLT3 ITD primary blasts (Figure 3B) are a combination of leukemic blast colonies and BFU colonies.” for “each).”

Ba/F3 FLT3 ITD + D835H = test: Ba/F3 cell viability, FLT3 ITD + D835H; type: cell-based; settings: Mus musculus, Ba/F3, 48 hr, ± SEM
Experimental: (§2) Stable Ba/F3 lines were generated by retroviral spinfection with the appropriate mutated plasmid as previously described ([Smith et al., 2012]).
(§3) Exponentially growing cells (5 × 10^3 cells per well) were plated in each well of a 96-well plate with 0.1 ml of RPMI 1640 + 10% (vol/vol) FCS containing the appropriate concentration of drug in triplicate, and cell viability was assessed after 48 hr as previously described ([Smith et al., 2012]). […] Log10-scale transformation of ratios, followed by conditional formatting using xcel spreadsheet software yielded the colored diagrams shown.
(§4) Mutations isolated in the screen were engineered into pMSCVpuroFLT3–ITD by QuikChange mutagenesis (Stratagene, La Jolla, CA) as previously described ([Smith et al., 2012]).

Ba/F3 FLT3 ITD + F691L = test: Ba/F3 cell viability, FLT3 ITD + F691L; type: cell-based; settings: Mus musculus, Ba/F3, 48 hr, ± SEM
Experimental: as §2, §3, §4

Ba/F3 FLT3 ITD + Y693C = test: Ba/F3 cell viability, FLT3 ITD + Y693C; type: cell-based; settings: Mus musculus, Ba/F3, 48 hr, ± SEM
Experimental: as §2, §3, §4

FLT3 = target: T1, FLT3 (Homo sapiens, UniProt P36888); test: Reaction Biology Corp kinase assay at Km-ATP (Figure 1C), FLT3
T1 sequence (P36888 27-993): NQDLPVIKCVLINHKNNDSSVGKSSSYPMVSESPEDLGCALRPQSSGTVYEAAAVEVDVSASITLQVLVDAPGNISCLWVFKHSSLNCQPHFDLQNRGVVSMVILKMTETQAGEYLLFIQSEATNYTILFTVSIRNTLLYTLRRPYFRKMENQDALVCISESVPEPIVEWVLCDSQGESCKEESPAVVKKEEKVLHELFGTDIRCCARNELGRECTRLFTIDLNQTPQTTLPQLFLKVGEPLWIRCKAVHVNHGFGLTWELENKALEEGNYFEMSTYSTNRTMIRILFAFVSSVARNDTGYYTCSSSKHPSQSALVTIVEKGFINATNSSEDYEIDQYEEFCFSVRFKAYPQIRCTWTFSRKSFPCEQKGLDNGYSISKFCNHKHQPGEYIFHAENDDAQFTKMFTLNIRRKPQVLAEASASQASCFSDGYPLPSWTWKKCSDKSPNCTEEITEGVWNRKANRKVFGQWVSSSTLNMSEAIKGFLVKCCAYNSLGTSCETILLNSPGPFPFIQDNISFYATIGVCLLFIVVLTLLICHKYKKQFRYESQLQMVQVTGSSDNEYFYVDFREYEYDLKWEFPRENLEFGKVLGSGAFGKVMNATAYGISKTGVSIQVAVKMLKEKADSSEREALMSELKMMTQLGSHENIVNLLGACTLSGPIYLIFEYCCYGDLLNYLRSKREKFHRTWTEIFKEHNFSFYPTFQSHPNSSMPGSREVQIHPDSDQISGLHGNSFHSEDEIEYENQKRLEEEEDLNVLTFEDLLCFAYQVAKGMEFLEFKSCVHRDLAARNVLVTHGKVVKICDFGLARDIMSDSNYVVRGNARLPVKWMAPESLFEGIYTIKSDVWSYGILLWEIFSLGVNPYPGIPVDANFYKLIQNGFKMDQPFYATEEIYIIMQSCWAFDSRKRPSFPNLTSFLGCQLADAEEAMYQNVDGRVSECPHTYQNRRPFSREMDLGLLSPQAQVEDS

PDGFRα = PDGFRα (Homo sapiens, UniProt P16234); test: Reaction Biology Corp kinase assay at Km-ATP (Figure 1C), PDGFRα
PDGFRα, sequence (P16234 24-1089): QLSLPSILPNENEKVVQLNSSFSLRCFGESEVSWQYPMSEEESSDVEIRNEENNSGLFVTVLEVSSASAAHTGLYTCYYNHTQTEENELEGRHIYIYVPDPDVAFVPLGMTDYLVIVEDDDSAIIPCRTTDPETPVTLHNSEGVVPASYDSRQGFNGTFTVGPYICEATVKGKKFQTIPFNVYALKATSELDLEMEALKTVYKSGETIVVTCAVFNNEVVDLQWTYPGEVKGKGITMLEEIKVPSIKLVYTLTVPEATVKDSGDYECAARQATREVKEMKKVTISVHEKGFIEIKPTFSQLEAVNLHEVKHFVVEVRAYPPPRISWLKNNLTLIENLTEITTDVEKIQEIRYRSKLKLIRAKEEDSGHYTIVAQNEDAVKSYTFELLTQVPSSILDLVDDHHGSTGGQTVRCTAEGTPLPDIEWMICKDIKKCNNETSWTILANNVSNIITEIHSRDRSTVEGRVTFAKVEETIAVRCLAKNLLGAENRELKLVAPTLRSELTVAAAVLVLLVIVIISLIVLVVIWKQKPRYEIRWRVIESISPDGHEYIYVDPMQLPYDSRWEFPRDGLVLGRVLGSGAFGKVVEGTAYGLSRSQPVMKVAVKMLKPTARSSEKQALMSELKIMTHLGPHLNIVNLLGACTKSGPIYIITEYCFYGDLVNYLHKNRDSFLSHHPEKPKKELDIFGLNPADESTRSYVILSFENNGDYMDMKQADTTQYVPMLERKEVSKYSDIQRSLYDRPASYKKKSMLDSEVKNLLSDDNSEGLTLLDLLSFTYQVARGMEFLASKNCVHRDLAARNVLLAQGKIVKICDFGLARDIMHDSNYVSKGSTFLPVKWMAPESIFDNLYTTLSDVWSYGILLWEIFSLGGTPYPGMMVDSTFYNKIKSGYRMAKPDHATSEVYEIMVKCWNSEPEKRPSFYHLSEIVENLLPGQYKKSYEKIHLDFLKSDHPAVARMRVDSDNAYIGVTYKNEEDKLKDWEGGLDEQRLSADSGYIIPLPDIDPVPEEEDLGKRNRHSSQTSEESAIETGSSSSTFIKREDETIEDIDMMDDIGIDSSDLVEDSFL

PDGFRβ = PDGFRβ (Homo sapiens, UniProt P09619); test: Reaction Biology Corp kinase assay at Km-ATP (Figure 1C), PDGFRβ
PDGFRβ, sequence (P09619 33-1106): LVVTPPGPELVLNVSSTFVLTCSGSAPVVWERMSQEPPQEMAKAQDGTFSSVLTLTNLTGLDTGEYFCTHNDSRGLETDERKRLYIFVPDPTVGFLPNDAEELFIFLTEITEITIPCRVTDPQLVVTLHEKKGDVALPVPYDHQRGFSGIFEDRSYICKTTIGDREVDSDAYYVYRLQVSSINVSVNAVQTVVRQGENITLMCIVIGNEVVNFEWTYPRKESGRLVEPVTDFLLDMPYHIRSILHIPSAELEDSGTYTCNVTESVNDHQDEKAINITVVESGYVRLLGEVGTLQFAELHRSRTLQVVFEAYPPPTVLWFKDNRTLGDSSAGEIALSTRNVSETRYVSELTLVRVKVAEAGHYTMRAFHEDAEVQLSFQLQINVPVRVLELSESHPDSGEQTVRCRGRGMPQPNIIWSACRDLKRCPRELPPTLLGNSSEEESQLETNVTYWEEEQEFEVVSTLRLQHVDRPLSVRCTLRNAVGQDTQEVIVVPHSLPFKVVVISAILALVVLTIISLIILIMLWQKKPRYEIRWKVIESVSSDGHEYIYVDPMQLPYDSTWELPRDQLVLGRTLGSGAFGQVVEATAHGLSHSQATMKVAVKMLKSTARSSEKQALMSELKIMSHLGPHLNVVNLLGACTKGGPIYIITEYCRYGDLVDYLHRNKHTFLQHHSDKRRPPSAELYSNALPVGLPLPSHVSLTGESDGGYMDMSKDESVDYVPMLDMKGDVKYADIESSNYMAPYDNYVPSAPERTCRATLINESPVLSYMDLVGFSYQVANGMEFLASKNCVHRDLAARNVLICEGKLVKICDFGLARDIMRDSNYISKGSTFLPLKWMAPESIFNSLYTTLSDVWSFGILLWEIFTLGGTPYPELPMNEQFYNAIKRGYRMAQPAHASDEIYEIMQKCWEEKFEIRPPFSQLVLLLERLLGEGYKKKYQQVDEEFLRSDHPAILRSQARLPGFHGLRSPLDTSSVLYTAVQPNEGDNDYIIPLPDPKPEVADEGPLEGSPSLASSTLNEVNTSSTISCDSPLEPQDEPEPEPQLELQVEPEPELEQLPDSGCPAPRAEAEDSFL

raw colony numbers, normal BM, BFUs ([2]; all Star 27-treated conditions): ca. 400 | raw colony numbers, normal BM, CFUs ([2]; all Star 27-treated conditions): ca. 300 | IC50 (Ba/F3 FLT3 ITD + D835H): 48 ± 29 nM | IC50 (Ba/F3 FLT3 ITD + F691L): 144 ± 97 nM | IC50 (Ba/F3 FLT3 ITD + Y693C): 279 ± 36 nM | IC50 (FLT3): < 0.0006 µM | IC50 (PDGFRα): 0.931 ± 0.109 µM | IC50 (PDGFRβ): 0.08 ± 0.011 µM
Compound: CC1NC(=O)c2c1c1c3ccccc3n(CCCN)c1c1[nH]c3ccccc3c21 (centres unmarked) [Star 27]
inhibition at 1 µM ([1]; Homo sapiens, at 1000 nM, read-out: inhibition of colonies, FLT3-D835 (ITD−) blasts): ~60% | raw colony numbers, FLT3 D835Y blasts ([1]; at 1,000 nM, ca. 120 for DMSO plates): ~50 | effect on normal hematopoietic colony formation (CFU and BFU) ([2]; normal BM and SPB donors, up to 1,000 nM): no effect on hematopoiesis up to 1,000 nM; also recorded: no significant effect up to a concentration of 1,000 nM
